These results are taken from ChEMBL document CHEMBL4602670, “Palhinosides A-H: Flavone Glucosidic Truxinate Esters with Neuroprotective Activities from Palhinhaea cernua” (J Nat Prod, 2020).

The source made the active and inactive calls. The calls are words filed in the database; no cut-off is given here.

The first experiment relates to HT-22. Kind of experiment: Neuroprotective activity against glutamate-induced cell damage in mouse HT22 assessed as increase cell viability at 1.3 to 15 uM after 24 hrs by luminescent cell viability assay. The experiment is classed as functional, cell-based.
`COC(=O)[C@H]1[C@@H](C(=O)OC[C@H]2O[C@@H](Oc3cc(O)c4c(=O)cc(-c5ccc(O)cc5)oc4c3)[C@H](O)[C@@H](O)[C@@H]2O)[C@H](c2ccc(O)cc2)[C@@H]1c1ccc(O)cc1`: the result was Active. Same read-out and setting: under `COC(=O)[C@H]1[C@H](C(=O)OC[C@H]2O[C@@H](Oc3cc(O)c4c(=O)cc(-c5ccc(O)cc5)oc4c3)[C@H](O)[C@@H](O)[C@@H]2O)[C@H](c2ccc(O)cc2)[C@H]1c1ccc(O)cc1` stands “Active”; under `COC(=O)[C@H]1[C@@H](C(=O)OC[C@H]2O[C@@H](Oc3cc(O)c4c(=O)cc(-c5ccc(O[C@@H]6O[C@H](CO)[C@@H](O)[C@H](O)[C@H]6O)cc5)oc4c3)[C@H](O)[C@@H](O)[C@@H]2O)[C@H](c2ccc(O)cc2)[C@@H]1c1ccc(O)cc1`, “Active”; under `COC(=O)[C@H]1[C@H](C(=O)OC[C@H]2O[C@@H](Oc3cc(O)c4c(=O)cc(-c5ccc(O[C@@H]6O[C@H](CO)[C@@H](O)[C@H](O)[C@H]6O)cc5)oc4c3)[C@H](O)[C@@H](O)[C@@H]2O)[C@H](c2ccc(O)cc2)[C@H]1c1ccc(O)cc1`, “Active”. Still for that read-out and setting: under `Cc1c(C)c2c(c(C)c1O)CCC(C)(C(=O)O)O2` (stereo not given) stands “Active”.

The next experiment concerns HT-22. Kind of experiment: Neuroprotective activity in mouse HT22 assessed as decrease in glutamate-induced ROS generation preincubated for 8 hrs followed by addition of 2,7-dichlorofluorescein diacetate and measured after 30 mins by fluorescence based assay. The experiment is classed as functional, cell-based.
`COC(=O)[C@H]1[C@@H](C(=O)OC[C@H]2O[C@@H](Oc3cc(O)c4c(=O)cc(-c5ccc(O)cc5)oc4c3)[C@H](O)[C@@H](O)[C@@H]2O)[C@H](c2ccc(O)cc2)[C@@H]1c1ccc(O)cc1`: the Activity result was “Dose-dependent effect”.

For a further experiment, the system named is HT-22. Put plainly: Neuroprotective activity against glutamate-induced cell damage in mouse HT22 assessed as increase cell viability at 0.6 to 15 uM after 24 hrs by luminescent cell viability assay. The experiment is classed as functional, cell-based.
For the molecule `O=C(OC[C@H]1O[C@@H](Oc2cc(O)c3c(=O)cc(-c4ccc(O)cc4)oc3c2)[C@H](O)[C@@H](O)[C@@H]1O)[C@@H]1[C@H](C(=O)OC[C@H]2O[C@@H](Oc3cc(O)c4c(=O)cc(-c5ccc(O)cc5)oc4c3)[C@H](O)[C@@H](O)[C@@H]2O)[C@@H](c2ccc(O)cc2)[C@H]1c1ccc(O)cc1`, the result was inactive. On to `O=C(OC[C@H]1O[C@@H](Oc2cc(O)c3c(=O)cc(-c4ccc(O)cc4)oc3c2)[C@H](O)[C@@H](O)[C@@H]1O)[C@H]1[C@H](C(=O)OC[C@H]2O[C@@H](Oc3cc(O)c4c(=O)cc(-c5ccc(O[C@H]6O[C@@H](CO)[C@H](O)[C@@H](O)[C@@H]6O)cc5)oc4c3)[C@H](O)[C@@H](O)[C@@H]2O)[C@H](c2ccc(O)cc2)[C@H]1c1ccc(O)cc1`, for which the result was inactive.

Regarding `O=C(OC[C@H]1O[C@@H](Oc2cc(O)c3c(=O)cc(-c4ccc(O[C@H]5O[C@@H](CO)[C@H](O)[C@@H](O)[C@@H]5O)cc4)oc3c2)[C@H](O)[C@@H](O)[C@@H]1O)[C@H]1[C@H](C(=O)OC[C@H]2O[C@@H](Oc3cc(O)c4c(=O)cc(-c5ccc(O[C@H]6O[C@@H](CO)[C@H](O)[C@@H](O)[C@@H]6O)cc5)oc4c3)[C@H](O)[C@@H](O)[C@@H]2O)[C@H](c2ccc(O)cc2)[C@H]1c1ccc(O)cc1`, the result was inactive. On the same count and under the same terms, under `O=C(OC[C@H]1O[C@@H](Oc2cc(O)c3c(=O)cc(-c4ccc(O[C@H]5O[C@@H](CO)[C@H](O)[C@@H](O)[C@@H]5O)cc4)oc3c2)[C@H](O)[C@@H](O)[C@@H]1O)[C@@H]1[C@H](C(=O)OC[C@H]2O[C@@H](Oc3cc(O)c4c(=O)cc(-c5ccc(O)cc5)oc4c3)[C@H](O)[C@@H](O)[C@@H]2O)[C@@H](c2ccc(O)cc2)[C@H]1c1ccc(O)cc1` stands “inactive”.
